Several values for one entry are separate records, joined by “and”; a condition that tells them apart may be missing. Equal entries are not always repeated.
Tested on: 648629-189-R-J1-PDC complex spheroids viability
Assay: Anticancer human tumor 648629-189-R-J1-PDC patient-derived bladder carcinoma cell line growth inhibition [CLK]
Settings: for viability, T/C: stronger effect = lower value
How it was run: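 Multi-cell-type spheroids combined patient-derived tumor cells with HUVEC endothelial cells and human mesenchymal stem cells. Paired agents were dosed in half-log steps down from about clinical Cmax, or from 10 microM where Cmax was unknown.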

[1] = curve of first compound, second compound 0.0316 µM
[2] = curve of first compound, second compound 0.1 µM
[3] = curve of first compound, second compound 0.316 µM
[4] = curve of first compound, second compound 1 µM
[5] = curve of first compound, second compound 3.16 µM
[6] = curve of first compound, second compound 10 µM
[7] = second compound 0.0316 µM, first compound 0.0316 µM
[8] = second compound 0.0316 µM, first compound 0.1 µM
[9] = second compound 0.0316 µM, first compound 0.316 µM
[10] = second compound 0.0316 µM, first compound 1 µM
[11] = second compound 0.0316 µM, first compound 3.16 µM
[12] = second compound 0.0316 µM, first compound 10 µM
[13] = second compound 0.1 µM, first compound 0.0316 µM
[14] = second compound 0.1 µM, first compound 0.1 µM
[15] = second compound 0.1 µM, first compound 0.316 µM
[16] = second compound 0.1 µM, first compound 1 µM
[17] = second compound 0.1 µM, first compound 3.16 µM
[18] = second compound 0.1 µM, first compound 10 µM
[19] = second compound 0.316 µM, first compound 0.0316 µM
[20] = second compound 0.316 µM, first compound 0.1 µM
[21] = second compound 0.316 µM, first compound 0.316 µM
[22] = second compound 0.316 µM, first compound 1 µM
[23] = second compound 0.316 µM, first compound 3.16 µM
[24] = second compound 0.316 µM, first compound 10 µM
[25] = second compound 1 µM, first compound 0.0316 µM
[26] = second compound 1 µM, first compound 0.1 µM
[27] = second compound 1 µM, first compound 0.316 µM
[28] = second compound 1 µM, first compound 1 µM
[29] = second compound 1 µM, first compound 3.16 µM
[30] = second compound 1 µM, first compound 10 µM
[31] = second compound 3.16 µM, first compound 0.0316 µM
[32] = second compound 3.16 µM, first compound 0.1 µM
[33] = second compound 3.16 µM, first compound 0.316 µM
[34] = second compound 3.16 µM, first compound 1 µM
[35] = second compound 3.16 µM, first compound 3.16 µM
[36] = second compound 3.16 µM, first compound 10 µM
[37] = second compound 10 µM, first compound 0.0316 µM
[38] = second compound 10 µM, first compound 0.1 µM
[39] = second compound 10 µM, first compound 0.316 µM
[40] = second compound 10 µM, first compound 1 µM
[41] = second compound 10 µM, first compound 3.16 µM
[42] = second compound 10 µM, first compound 10 µM
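Wherever viability, T/C is given: drug exposure lasted seven days before viability readout; 100% = DMSO vehicle control wells.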

In the case of NC(=O)C(=Cn1cnc(-c2cc(C(F)(F)F)cc(C(F)(F)F)c2)n1)c1cncnc1 + CNC(=O)c1ccc(Nc2nc(OC3CCCC3)c3c(-c4ccc5nc(C)oc5c4)c[nH]c3n2)c(OC)c1, the IC50 [1] is reported as 52.2 nM, the IC50 [2] is reported as 44.5 nM and the IC50 [3] is reported as < 9.49 nM. For the same compound, the IC50 [4] was < 9.49 nM, the IC50 [5] was < 9.49 nM and the IC50 [6] was < 9.49 nM. It also gave a viability, T/C (second compound 0.0316 µM, first compound 0.00949 µM) of 99%, a viability, T/C (second compound 0.0316 µM, first compound 0.03 µM) of 83.4% and a viability, T/C (second compound 0.0316 µM, first compound 0.0949 µM) of 13.9%. For the same compound, the viability, T/C (second compound 0.0316 µM, first compound 0.3 µM) was 5.54%, the viability, T/C (second compound 0.0316 µM, first compound 0.949 µM) was 2.71% and the viability, T/C (second compound 0.0316 µM, first compound 3 µM) was 2.7%. For the same compound, the viability, T/C (second compound 0.1 µM, first compound 0.00949 µM) was 94.1%, the viability, T/C (second compound 0.1 µM, first compound 0.03 µM) was 68.2% and the viability, T/C (second compound 0.1 µM, first compound 0.0949 µM) was 14.8%. The viability, T/C (second compound 0.1 µM, first compound 0.3 µM) was 4.73%, the viability, T/C (second compound 0.1 µM, first compound 0.949 µM) was 2.15% and the viability, T/C (second compound 0.1 µM, first compound 3 µM) was 2.48%. For the same compound, the viability, T/C (second compound 0.316 µM, first compound 0.00949 µM) was 22.4%, the viability, T/C (second compound 0.316 µM, first compound 0.03 µM) was 17.4% and the viability, T/C (second compound 0.316 µM, first compound 0.0949 µM) was 7.71%. The viability, T/C (second compound 0.316 µM, first compound 0.3 µM) was 2.5%, the viability, T/C (second compound 0.316 µM, first compound 0.949 µM) was 1.35% and the viability, T/C (second compound 0.316 µM, first compound 3 µM) was 2.05%. It also gave a viability, T/C (second compound 1 µM, first compound 0.00949 µM) of 18.1%, a viability, T/C (second compound 1 µM, first compound 0.03 µM) of 11.5% and a viability, T/C (second compound 1 µM, first compound 0.0949 µM) of 4.85%. It also gave a viability, T/C (second compound 1 µM, first compound 0.3 µM) of 1.29%, a viability, T/C (second compound 1 µM, first compound 0.949 µM) of 0.91% and a viability, T/C (second compound 1 µM, first compound 3 µM) of 0.42%. For the same compound, the viability, T/C (second compound 3.16 µM, first compound 0.00949 µM) was 14.7%, the viability, T/C (second compound 3.16 µM, first compound 0.03 µM) was 11.7% and the viability, T/C (second compound 3.16 µM, first compound 0.0949 µM) was 5.56%. The viability, T/C (second compound 3.16 µM, first compound 0.3 µM) was 1.15%, the viability, T/C (second compound 3.16 µM, first compound 0.949 µM) was 1.87% and the viability, T/C (second compound 3.16 µM, first compound 3 µM) was 1.75%. It also gave a viability, T/C (second compound 10 µM, first compound 0.00949 µM) of 15.4%, a viability, T/C (second compound 10 µM, first compound 0.03 µM) of 8.85% and a viability, T/C (second compound 10 µM, first compound 0.0949 µM) of 5.59%. The viability, T/C (second compound 10 µM, first compound 0.3 µM) was 1.56%, the viability, T/C (second compound 10 µM, first compound 0.949 µM) was 1.79% and the viability, T/C (second compound 10 µM, first compound 3 µM) was 0.33%.

In the case of COc1ccc([C@@H](O)c2cc(-c3ncnc4cc(N5CCOCC5)ccc34)c(F)cc2Cl)nn1 + CN1CCN(c2cc(C(=O)Nc3cc4cc(-c5cnn(C)c5)ccc4cn3)ccn2)CC1, the IC50 [1] is reported as 7780 nM, the IC50 [2] is reported as 8170 nM and the IC50 [3] is reported as < 31.6 nM. The IC50 [4] was < 31.6 nM, the IC50 [5] was < 31.6 nM and the IC50 [6] was < 31.6 nM. The viability, T/C [7] was 122%, the viability, T/C [8] was 107% and the viability, T/C [9] was 101%. The viability, T/C [10] was 95.2%, the viability, T/C [11] was 80% and the viability, T/C [12] was 41.2%. For the same compound, the viability, T/C [13] was 98%, the viability, T/C [14] was 89% and the viability, T/C [15] was 102%. It also gave a viability, T/C [16] of 88.9%, a viability, T/C [17] of 80.3% and a viability, T/C [18] of 43.4%. For the same compound, the viability, T/C [19] was 23%, the viability, T/C [20] was 26% and the viability, T/C [21] was 32.9%. It also gave a viability, T/C [22] of 29.2%, a viability, T/C [23] of 26.8% and a viability, T/C [24] of 19.9%. For the same compound, the viability, T/C [25] was 0.13%, the viability, T/C [26] was 0.23% and the viability, T/C [27] was 0.79%. The viability, T/C [28] was 0.13%, the viability, T/C [29] was 0.57% and the viability, T/C [30] was 0.16%. For the same compound, the viability, T/C [31] was 0.06%, the viability, T/C [32] was 0.6% and the viability, T/C [33] was 0.1%. For the same compound, the viability, T/C [34] was 0.08%, the viability, T/C [35] was 0.27% and the viability, T/C [36] was 1.67%. The viability, T/C [37] was 0.07%, the viability, T/C [38] was 0.13% and the viability, T/C [39] was 0.14%. For the same compound, the viability, T/C [40] was 0.13%, the viability, T/C [41] was 0.92% and the viability, T/C [42] was 0.65%.

For C#Cc1c(F)ccc2cc(O)cc(-c3ncc4c(N5CC6CCC(C5)N6)nc(OCC56CCCN5CC(F)C6)nc4c3F)c12 (stereo not drawn), the viability, T/C (compound 0.0316 µM) was 97.9% and 109%, the viability, T/C (compound 0.1 µM) was 94.2% and 99.3% and the viability, T/C (compound 0.316 µM) was 91.3% and 98%. For the same compound, the viability, T/C (compound 1 µM) was 91% and 107%, the viability, T/C (compound 3.16 µM) was 94.4% and 111% and the viability, T/C (compound 10 µM) was 88.9% and 101%. The IC50 (curve of compound) was > 10000 nM.

For O=C(c1cc(Cc2n[nH]c(=O)c3ccccc23)ccc1F)N1CCN(C(=O)C2CC2)CC1 + CN1CCN(c2cc(C(=O)Nc3cc4cc(-c5cnn(C)c5)ccc4cn3)ccn2)CC1, the IC50 [1] was > 10000 nM, the IC50 [2] was > 10000 nM and the IC50 [3] was < 31.6 nM. For the same compound, the IC50 [4] was < 31.6 nM, the IC50 [5] was < 31.6 nM and the IC50 [6] was < 31.6 nM. It also gave a viability, T/C [7] of 105%, a viability, T/C [8] of 106% and a viability, T/C [9] of 104%. For the same compound, the viability, T/C [10] was 100%, the viability, T/C [11] was 86.5% and the viability, T/C [12] was 72.1%. The viability, T/C [13] was 115%, the viability, T/C [14] was 111% and the viability, T/C [15] was 110%. The viability, T/C [16] was 98%, the viability, T/C [17] was 84.4% and the viability, T/C [18] was 68.2%. The viability, T/C [19] was 37.2%, the viability, T/C [20] was 39.2% and the viability, T/C [21] was 43.6%. It also gave a viability, T/C [22] of 46%, a viability, T/C [23] of 42% and a viability, T/C [24] of 32.6%. For the same compound, the viability, T/C [25] was 0.41%, the viability, T/C [26] was 0.25% and the viability, T/C [27] was 0.62%. The viability, T/C [28] was 0.21%, the viability, T/C [29] was 0.92% and the viability, T/C [30] was 1.08%. The viability, T/C [31] was 0.08%, the viability, T/C [32] was 0.44% and the viability, T/C [33] was 0.12%. The viability, T/C [34] was 0.15%, the viability, T/C [35] was 0.79% and the viability, T/C [36] was 0.38%. The viability, T/C [37] was 0.08%, the viability, T/C [38] was 0.14% and the viability, T/C [39] was 0.72%. The viability, T/C [40] was 0.15%, the viability, T/C [41] was 0.23% and the viability, T/C [42] was 0.5%.
